Assays:
TNF-α = assay: Serum cytokine determination by ELISA (TNF-α); type: in vivo, rat; conditions: H/F neonatal rats + CO 250 ppm; 33.2 fold in H/F without CO
Protocol: (§1) Pregnant time-dated Sprague-Dawley rats were induced at term using subcutaneous injection of Pitocin (1 U). Immediately after birth (day zero), the neonates were weighed and randomized into two main groups. Animals were either left with their mothers and thus breast-fed, or separated from their mothers, housed in an incubator (Ohio Medical Products, Madison, Wis.), gavage fed with a special rodent formula two times daily, and subjected to 10 minutes of hypoxia (5% O2, 95% N2; PraxAir, Pittsburgh, Pa.) prior to each feeding. The formula consisted of 15 g Similac® 60/40 (Ross Pediatrics, Colombus, Ohio) in 75 mL of Esbilac® canine milk replacement (Pet-Ag Inc., Hampshire, Ill.). Rats from each group were further randomized to receive no additional treatment or one-hour per day CO treatment (250 parts per million; ppm, days 1-3). CO was delivered as described below. The neonatal rats were sacrificed on day four. The intestines were inspected for gross necrotic changes and pneumatosis intestinalis. The last 2 cm of terminal ileum was harvested for morphological studies, and mucosal scrapings were collected for detection of protein.
(§2) Animals were exposed to CO at a concentration of 250 ppm. Briefly, 1% CO in air was mixed with air (21% oxygen) in a stainless steel mixing cylinder and then directed into a 3.70 ft^3 glass exposure chamber at a flow rate of 12 L/min. […]

IL-1β [1] = assay: Serum cytokine determination by ELISA (IL-1β); type: in vivo, rat; conditions: H/F neonatal rats + CO 250 ppm; 18.5 fold in H/F without CO
Protocol: as §1, §2

iNOS [2] = assay: iNOS protein expression in IEC-6 cells by Western blot; type: cell-based, rat; conditions: 24 hours, CO 250 ppm from 1 hour before; for Cytokine-induced increase in iNOS protein in IEC-6 cells: CM: TNF-α 10 ng/ml, IL-1β 500 U/ml, IFN-γ 1000 U/ml, CoPP 16 hours before
Protocol: FIG. 8A is a picture of a Western blot illustrating (at 24 hours) that iNOS protein expression is inhibited in lipopolysaccharide (LPS) and/or hypoxia (1% oxygen) treated IEC-6 cells. CO treatment (250 ppm) was initiated 1 hour before the addition of LPS/hypoxia and maintained throughout the experiment. The combination of LPS (10 or 100 ng/ml) plus hypoxia increased iNOS protein expression, an effect that was inhibited by CO. The presence (+) or absence (−) of each treatment (lipopolysaccharide (lps), hypoxia exposure (hypoxia) and CO exposure (CO)) is indicated beneath each lane of the Western blot.
(§3) FIG. 8C is a picture of a Western blot illustrating that cytokine-induced iNOS protein expression is inhibited in IEC-6 cells by induction of HO-1 or treatment with CO. IEC-6 cells were treated with a cytokine mixture (CM) containing TNF-α (10 ng/ml), IL-1β (500 U/ml), and IFN-γ (1000 U/ml) for 24 hours. CO treatment (250 ppm) was initiated 1 hour prior to administration of CM and maintained throughout the duration of the experiment. Cobalt protoporphyrin (CoPP) was administered 16 hours prior to CM treatment. CM increased IEC-6 cell iNOS protein. Both CO and CoPP inhibited cytokine-induced increase in iNOS protein. The presence (+) or absence (−) of each treatment (cytokine mixture (CM), CO exposure (CO), and cobalt protoporphyrin exposure (CoPP)) is indicated beneath each lane of the Western blot.
The rat small-intestinal epithelial cell line IEC-6 was obtained from the American Type Culture Collection (Manassas, Va.). […]
(§4) IEC-6 cells or ileal mucosal scrapings were collected in lysis buffer containing 20 mmol/L Tris with 100 μmol/L phenylmethylsulfonylfluoride (Sigma), 1 μmol/L leupeptin (Sigma), and 1 μmol/L sodium orthovanadate (Sigma). Protein was quantified by bicinchoninic acid (BCA) protein assay (Pierce, Rockford, Ill.). […]

COX-2 = assay: Western blot of ileal mucosal lysates (COX-2); type: in vivo, rat; conditions: H/F neonatal rats + CO, ileal mucosa
Protocol: as §1, with “The last 2 cm of terminal ileum was harvested for morphological studies, and mucosal scrapings were collected for detection of protein.” left out
as §4

nitrosotyrosines = assay: Western blot of ileal mucosal lysates (protein nitration); type: in vivo, rat; conditions: H/F neonatal rats + CO, ileal mucosa
Protocol: as §1, with “The last 2 cm of terminal ileum was harvested for morphological studies, and mucosal scrapings were collected for detection of protein.” left out
as §4

rat iNOS promoter = assay: Rat iNOS promoter-luciferase reporter assay in IEC-6 cells; type: cell-based; conditions: IEC-6, LPS 100 ng/ml + 1% oxygen + CO; 4.9±0.3 fold without CO
Protocol: FIG. 8B is a bar graph illustrating that rat iNOS promoter activity in LPS (100 ng/ml)/hypoxia (1% oxygen; lps/hypoxia)-treated IEC-6 cells is limited by exposure to CO. Cells were assayed for luciferase activity. […] CO limited this transcriptional activation to a 1.7±0.2 fold increase (P<0.05). Results are mean±standard error of 3 independent studies performed in triplicate.
(§5) The rat small-intestinal epithelial cell line IEC-6 was obtained from the American Type Culture Collection (Manassas, Va.). Cells were grown in Dulbecco's modified Eagle's medium with 4.5 g/L glucose (Bio-Whittaker, Walkersville, Md.) supplemented with 5% fetal bovine serum, […] (Gibco, Grand Island, N.Y.), 0.1 U/mL insulin, and 100 U/mL penicillin/100 μg/mL streptomycin at 37° C. and 10% CO2. Cells from passages 3 through 20 were used for experiments.
pGL3/2 rat iNOS promoter-luciferase reporter was constructed as described in Beck et al., FEBS Lett 435:35-38 (1998). IEC-6 cells grown in 35 mm wells were transfected with 4 μL Lipofectamine2000® (Invitrogen), 0.15 μg pGL3/2 DNA and 0.5 μg pIEP-LacZ DNA, which was used as a control for transfection efficiency. Twenty-four hours following transfection, cells were treated for 6 hours, then lysates were collected and a luciferase assay (Promega) was performed with a luminometer (Berthold, Germany).

HO-1 = assay: Western blot of ileal mucosal lysates (HO-1); type: in vivo, rat; conditions: H/F neonatal rats + CO (data not shown)
Protocol: as §1, with “The last 2 cm of terminal ileum was harvested for morphological studies, and mucosal scrapings were collected for detection of protein.” left out
as §4

neonatal rat ileum [3] = assay: TUNEL staining of ileal whole mounts in the NEC model; type: in vivo; conditions: H/F neonatal rats, CO 250 ppm 1 h/day days 1-3, ileum day 4
Protocol: as §1, §2

neonatal rat ileum [4] = assay: Animal model of necrotizing enterocolitis: gross and microscopic pathology of ileum; type: in vivo; conditions: for Gross Changes (n): Bowel wall necrosis / Gross Changes (n): Pneumatosis intestinalis / Microscopic Changes (n): Stromal neutrophils / Microscopic Changes (n): Vacuolization / Microscopic Changes (n): Villous atrophy: day 4 of life
Protocol: as §1
Animals were exposed to CO at a concentration of 250 ppm. Briefly, 1% CO in air was mixed with air (21% oxygen) in a stainless steel mixing cylinder and then directed into a 3.70 ft^3 glass exposure chamber at a flow rate of 12 L/min. A CO analyzer (Interscan, Chatsworth, Calif.) was used to measure CO levels continuously in the chamber. CO concentrations were maintained at 250 ppm at all times. Rats were placed in the exposure chamber as required.
Intestinal specimens were harvested as described above. Hematoxylin and eosin (H&E) slides were prepared as per standard protocol and examined by light microscopy. The presence of morphological changes in the intestinal epithelium, including separation of the villous core, submucosal edema, and epithelial sloughing, were determined by a pathologist in a blinded fashion.

IEC-6 cells [5] = assay: TNF-α/Actinomycin D-induced IEC-6 cell death, viability by cellular ATP content; type: cell-based, rat; conditions: for TNF-α/ActD-induced IEC-6 cell death (in words): CoPP 16 hours before
Protocol: FIG. 7 is a bar graph illustrating that CO exposure and induction of HO-1 decreases TNF-α/Actinomycin D (TNF/ActD)-induced IEC-6 cell death. Viability of TNF-α (TNF; 10 ng/ml)/Actinomycin D (ActD; 200 ng/ml)-treated IEC-6 cells was assayed after 18 hours by measuring cellular ATP content. CO treatment (CO; gray bars; 250 ppm) was initiated 1 hour prior to administration of TNF-α/ActD and maintained throughout the duration of the experiment. Cross-hatched bars=cells exposed to cobalt protoporphyrin (CoPP) 16 hours prior to exposure to TNF-α/ActD. Black bars=air exposed cells. […] Results are mean±standard error of 3 independent studies performed in triplicate.
as §5
Cell viability was determined by measuring ATP levels (CellTiter-Glo™; Promega) as per the manufacturer's protocol.
To determine whether HO-1 or CO inhibits cell death in vitro, the rat intestinal epithelial cell line IEC-6 was utilized. Cell death was induced by treating these cells with TNF-α (10 ng/ml) plus actinomycin D (ActD; 200 ng/ml). Cell viability was analyzed by crystal violet staining of adherent cells and assessment of cellular ATP content. TNF-α/ActD decreased IEC-6 cell viability to 24±2.1% that of untreated controls (FIG. 7; P<0.05).

iNOS [6] = assay: Western blot of ileal mucosal lysates (iNOS); type: in vivo, rat; conditions: H/F neonatal rats + CO, ileal mucosa
Protocol: as §1, with “The last 2 cm of terminal ileum was harvested for morphological studies, and mucosal scrapings were collected for detection of protein.” left out
as §4

IEC-6 cells [7] = assay: Nitrite determination (Griess) in IEC-6 culture medium; type: cell-based, rat; conditions: CM stimulation; 17.2±0.9 μM with CM alone, 1.4±0.3 μM unstimulated
Protocol: as §3
FIG. 8D is a bar graph illustrating that the nitrite levels in supernatantants of IEC-6 cells that are exposed to CM and either CO or CoPP are lower than those of IEC-6 cells exposed to CM and air (as determined by Griess assay). Cytokine stimulation increased nitrite to 17.2±0.9 μM compared to 1.4±0.3 μM in unstimulated controls (P<0.01). […] Black bars=air exposed cells; gray bars=CO exposed cells; and cross-hatched bars=CoPP exposed cells. […]
Nitrite (NO2^−) was measured in the culture medium using the Griess method.

IL-1β [8] = assay: Western blot of ileal mucosal lysates (IL-1β); type: in vivo, rat; conditions: H/F neonatal rats + CO, ileal mucosa
Protocol: as §1, with “The last 2 cm of terminal ileum was harvested for morphological studies, and mucosal scrapings were collected for detection of protein.” left out
as §4

[9] = Breast-fed + CO (250 ppm, 1 h/day, days 1-3), total n=7
[10] = Formula-Fed/Hypoxia + CO (250 ppm, 1 h/day, days 1-3), total n=8
[11] = TNF-α 10 ng/ml + ActD 200 ng/ml, 18 hours, CO 250 ppm from 1 hour before

[C-]#[O+] [CO, carbon monoxide]
Serum TNF-α increase compared to breast fed controls (TNF-α): 3 fold | Serum IL-1β increase compared to breast fed controls (IL-1β [1]): 2.5 fold | Cytokine-induced increase in iNOS protein in IEC-6 cells (iNOS [2]): inhibited | LPS/hypoxia-induced iNOS protein in IEC-6 cells (iNOS [2]; LPS 10 or 100 ng/ml + 1% oxygen): inhibited | Ileal COX-2 protein expression (COX-2): decreased expression | Ileal nitrosotyrosines (protein nitration) (nitrosotyrosines): markedly decreased | Transcriptional activation of the iNOS promoter, fold increase (rat iNOS promoter): 1.7±0.2 fold | Ileal HO-1 expression (HO-1): decreased expression | TUNEL staining for cell death (neonatal rat ileum [3]): diminished | Gross Changes (n): Bowel wall necrosis (neonatal rat ileum [4]; [9]): 0 n | Gross Changes (n): Pneumatosis intestinalis (neonatal rat ileum [4]; [9]): 0 n | Microscopic Changes (n): Stromal neutrophils (neonatal rat ileum [4]; [9]): 0 n | Microscopic Changes (n): Vacuolization (neonatal rat ileum [4]; [9]): 1 n | Microscopic Changes (n): Villous atrophy (neonatal rat ileum [4]; [9]): 0 n | Gross Changes (n): Bowel wall necrosis (neonatal rat ileum [4]; [10]): 2 n | Gross Changes (n): Pneumatosis intestinalis (neonatal rat ileum [4]; [10]): 1 n | Microscopic Changes (n): Stromal neutrophils (neonatal rat ileum [4]; [10]): 1 n | Microscopic Changes (n): Vacuolization (neonatal rat ileum [4]; [10]): 3 n | Microscopic Changes (n): Villous atrophy (neonatal rat ileum [4]; [10]): 2 n | Development of experimental NEC (neonatal rat ileum [4]; H/F (hypoxia/formula fed) neonatal rats, CO 250 ppm 1 h/day days 1-3, day 4): significantly protected | Effect on gross or microscopic evaluation (neonatal rat ileum [4]; breast fed neonatal rats, CO 250 ppm 1 h/day days 1-3, day 4): no effect | Effect on viability of IEC-6 cells, agent alone (IEC-6 cells [5]; CO alone, in vitro): no measurable effect | TNF-α/ActD-induced IEC-6 cell death (in words) (IEC-6 cells [5]; [11]): significantly decreased | IEC-6 cell viability compared to untreated controls (IEC-6 cells [5]; TNF-α 10 ng/ml + ActD 200 ng/ml, 18 hours, CO 250 ppm from 1 hour before, 24±2.1% without CO): 54±5.6% | Ileal iNOS protein (iNOS [6]): markedly decreased | Nitrite levels in supernatants of cytokine-stimulated IEC-6 cells (IEC-6 cells [7]): 9.8 ± 0.7 µM | Ileal IL-1β protein expression (IL-1β [8]): decreased expression

C=CC1=C(C)c2cc3[n-]c(cc4nc(cc5[n-]c(cc1n2)c(C)c5CCC(=O)[O-])C(CCC(=O)[O-])=C4C)c(C)c3C=C.[Co+2].[H+].[H+] [CoPP, cobalt protoporphyrin, reference compound]
Cytokine-induced increase in iNOS protein in IEC-6 cells (iNOS [2]): inhibited | TNF-α/ActD-induced IEC-6 cell death (in words) (IEC-6 cells [5]; [11]): significantly decreased | Nitrite levels in supernatants of cytokine-stimulated IEC-6 cells (IEC-6 cells [7]): 10.4 ± 1.0 µM

Source: patent publication US7981448B2, “Methods of treating necrotizing enterocolitis” (University of Pittsburgh, priority 2002, dated 2011)
